Experiment: xn = mol fraction of the nth substance listed

CN(CCO)CCO + CCO
313 K, 101.33 kPa
Details	viscosity [mPa·s]
x1 = 0.0079	0.832
x1 = 0.02	0.888
x1 = 0.0434	0.998
x1 = 0.216	2.132
x1 = 0.2986	2.967
x1 = 0.3977	4.196
x1 = 0.5237	7.05
x1 = 0.5978	9.003
x1 = 0.7028	12.92
x1 = 0.8085	17.79
x1 = 0.908	23.88

COCCOCCOCCOC + COC(C)=O
viscosity [mPa·s], 101.3 kPa
Details	298.15 K	308.15 K	318.15 K
x1 = 0.022	0.398	0.352	0.33
x1 = 0.0473	0.424	0.378	0.352
x1 = 0.0717	0.455	0.404	0.373
x1 = 0.1255	0.527	0.465	0.425
x1 = 0.1838	0.61	0.534	0.478
x1 = 0.2145	0.649	0.561	0.512
x1 = 0.236	0.676	0.58	0.528
x1 = 0.2557	0.709	0.616	0.549
x1 = 0.3143	0.802	0.687	0.611
x1 = 0.4027	0.943	0.802	0.699
x1 = 0.4806	1.07	0.905	0.783
x1 = 0.5743	1.234	1.031	0.883
x1 = 0.6289	1.326	1.1	0.942
x1 = 0.6511	1.367	1.13	0.964
x1 = 0.7138	1.474	1.215	1.031
x1 = 0.7667	1.566	1.286	1.086
x1 = 0.7792	1.593	1.308	1.1
x1 = 0.8702	1.743	1.426	1.195
x1 = 0.9014	1.805	1.472	1.225
x1 = 0.9571	1.891	1.548	1.278
x2 = 0.0137	1.936	1.584	1.306
